# Several values for one entry are separate records, joined by “and”; a condition that tells them apart may be missing. Identical values can stand only once. Like-named read-outs stand apart in the source and are kept apart here.
# Columns and labels:
# DHFR from E. coli [1] = target: T1, DHFR from E. coli (Escherichia coli, UniProt P0ABQ4); experiment: Fluorimetric binding assay, quenching of DHFR tryptophan emission (λexc = 280 nm); details: for TΔS°: from van't Hoff analysis; for ΔG°: standard free energy equation from ΔH° and TΔS°; for ΔH° / ΔS°: van't Hoff equation from Kd at 25, 10 and −4 °C
# T1 construct: made in house
# Method: The Hepes/methanol solutions of the gold(I) compounds were used for the fluorimetric assays (see materials and methods section) regarding DHFR from E. coli. The emission’s maximum of DHFR was detected at 344 nm upon excitation at 280 nm; by adding additional amounts of the gold complex in Hepes/methanol solutions (ranging among 4 ÷ 50 µM), the quenching of this emission intensity was observed. In Figure 3, spectra showing the effect of ^4L3AuCl on DHFR emission are reported. It is possible to observe the quenching of the Tryptophan’s emission and the corresponding increase of the intrinsic phosphorescence of the gold compound.
# (§1) The fluorimetric analysis was performed using a 1 mL quartz cuvette and a Perkin–Elmer Fluorescence Spectrometer LS 55. For all the analysis we used 5–12 µM solutions of DHFR and increasing concentrations of gold(I) compounds in the 4–60 µM range. For some experiments, saturating concentrations of NADPH (50 µM) were added to the initial solutions of DHFR to observe the affinity variation of the complexes with respect to the DHFR.
# All the spectra were recorded in the range between 250 and 600 nm using an excitation wavelength characteristic of the Tryptophan, equal to 280 nm. For most of the experiments the temperature was kept constant at 25 °C; furthermore, to analyze the thermodynamic aspects of the reactions (via the van’t Hoff equation), quenching spectra of DHFR in presence of the gold(I) complexes were recorded at −4 and 10 °C as well.
# (§2) The fluorimetric data were analyzed using the binding isotherm (Equation (2)), where [Q] is the concentration of the added quenching ligand, F is the measured fluorescence, F0 is the starting fluorescence, Fc is the fluorescence of the fully complexed protein, Kd is the dissociation constant, and n is the Hill coefficient. Indeed, n is a phenomenological parameter, an interaction coefficient, such as when n = 1 the equation describes a complex formation with one site of interaction, when n = 2 binding occurs with a dimer, when 1 < n < 2 a cooperative interaction occurs. (2) F0−F/F−Fc=[Q]^n/(Kd+[Q])^n
# DHFR from E. coli [2] = target: T1, DHFR from E. coli; experiment: Inhibition of DHFR-catalysed reduction of H2F to H4F, spectrophotometric at 340 nm, Dixon plot; assay type: biochemical; details: pH 7.3, 30 °C, saturating NADPH, H2F 1.5-10 µM, Hepes/methanol
# Method: The phosphane gold(I) compounds were used to prepare buffered stock solutions at pH = 7.3 at 30 °C for the inhibition tests of DHFR from E coli. In Table 1, the list of the gold(I) compounds used for the tests and the corresponding inhibition constants are reported.
# The inhibition action of the gold phosphane compounds was tested in regards to the reduction of H2F to H4F reaction, catalyzed by DHFR [2]. The inhibition tests were led by analyzing the reciprocal reaction rate upon the addition of Hepes/methanol solutions of gold compounds in different set of tests in the saturated concentration of NADPH. The tests were repeated with different amounts of dihydrofolate (DHF) (1.5 ÷ 10 µM).
# The standard deviations were calculated for a minimum of three determinations. (1) 1/ν=Km/VmaxKi[S]∗[I]+1/Vmax(1+Km/[S])
# The activity of the DHFR was followed by recording the absorbance with a Shimadzu UV-2450 (UV-Vis spectrophotometer). The enzyme assays were made in a quartz cuvette by using similar experimental conditions: DHFR 3-5 nM, NADPH 60–80 μM, and H2F 1.5, 4, and 10 μM. The procedure consisted in the preparation of the following mixtures: 800–971 µL of 50 mM Hepes buffer at pH = 7.3, 20 μL of NADPH, 10 µl of DHFR, and increasing quantities of gold(I) compounds stock solutions in order to achieve higher accuracy in the measurement of the inhibitory effect. After storing the mixture for 5 min at 30 °C, 4–33 µL of H2F was added. The decreasing absorbance at 340 nm, due to the oxidation of NADPH to NADP^+, was detected after adding the H2F, and expressed in U mL^−1 using the equation: U·mL^−1 = Δabs/Δt/11.8 × dilution factor, where 11.8 is the mMolar extinction coefficient when NADPH and H2F are simultaneously present in solution. The Ki values were calculated with the Dixon plot from the second plot obtained computing the slope values against the reciprocal of the H2F concentrations.
# DHFR/NADPH = target: T2, DHFR/NADPH (Escherichia coli, UniProt P0ABQ4); experiment: Fluorimetric binding assay on DHFR in presence of saturating NADPH; details: 25 °C, saturating NADPH (50 µM); read-out: Kd ± s.d. (25 °C) in presence of saturating NADPH
# T2 construct: made in house
# Source text: After these preliminary emissive property characterizations, the fluorimetric studies were led in the presence of the enzyme DHFR and the cofactor NADPH [26]. […] Additionally, NADPH is fluorescent, with an absorption maximum at about 340 nm and an emission maximum at about 450 nm. […] Moreover, because NADPH has a maximum of absorption at 340 nm, significant energy transfer from the excited tryptophan of the enzyme to bound NADPH occurs; as a consequence, a new emission at 420–450 nm is then observed. Figure 8 reports the progressive quenching of the DHFR and NADPH emissions by stepwise adding of solution of ^4L3AuCl. Moreover, a slight shift of the typical emission at […] (λexc = 280 nm) is observed.
# as §1, §2
# DHFR from E. coli [3] = target: T1, DHFR from E. coli; design: method as in PMID 25567238; details: values obtained in a previous work, cited from earlier work
# DHFR = system: DHFR; design: method as in PMID 17920, PMID 12359872; details: cited from earlier work
# [4] = UV-visible spectroscopy stability test in Hepes/methanol solution; assay type: physicochemical; details: 11.85 µM, Hepes/methanol 80:20, 30 °C, one hour, every 3 minutes
# Method: The preparation of the gold compounds was performed according to methods already published and was based on the substitution of the labile ligand from the gold precursor [AuCl(Me2S)], by mean of a more coordinative ligand, such as the PPh3 or its modified analogs, ^4L and ^2L. Mole ratio with an excess of the phosphane ligand was pursued with the aim to enhance the reaction yield for tris-phosphane compounds. The solids obtained by crystallization were characterized by elemental analysis, ^1H and ^31P NMR, IR, and ESI Mass spectrometry. The stability of the stock solutions upon dilution was checked by recording UV-visible spectra (see Supplementary Material, Figures S1 and S2). The reactants for the ester reaction and ^4L or ^2L ligands were bought from Aldrich and used without any purification. Methanol or methylene chloride solvents were degassed and dried over molecular sieves.
# UV-visible spectroscopy stability tests of compounds 4L3AuCl, 4L2AuCl, and 2L2AuCl on […]
# Acquisitions of the absorptions in the range of 200–700 nm of the tested solutions were led for an hour lapse every 3 minutes in 11.85 µM concentration of 4L3AuCL (figure S1), 4L2AuCl, and 2L2AuCl (figure S2) at 30 °C. The stability was tested in Hepes/methanol 80:20, which are the same conditions used for the inhibition tests.
# Figure S1. UV-visible spectra for 11.85 µM of 4L3AuCl in hepes/methanol
# (1 picture or pasted object on this page, not shown here)
# [5] = 25 °C, without NADPH, Hepes/methanol, read-out: Kd ± s.d., T = 25 °C
# [6] = 10 °C, without NADPH, read-out: Kd ± s.d. (10 °C) (converted)
# [7] = −4 °C, without NADPH, read-out: Kd ± s.d. (−4 °C) (converted)
# [8] = 25 °C, when not specified n = 1
Structure (SMILES),Kd (DHFR from E. coli [1]; [5]),Ki (DHFR from E. coli [2]),Kd (DHFR from E. coli [1]; [6]),TΔS° (DHFR from E. coli [1]),ΔG° (DHFR from E. coli [1]),ΔH° (DHFR from E. coli [1]),ΔS° (DHFR from E. coli [1]),Kd (DHFR from E. coli [1]; [7]),Kd (DHFR/NADPH),Ki (DHFR from E. coli [3]; read-out: Ki),further results
"O=C(O)c1ccccc1 [Benzoic acid, reference compound]",~4000 µM,–,–,–,–,–,–,–,–,–,–
"[Cl][Au]([PH](c1ccccc1)(c1ccccc1)c1ccccc1)[PH](c1ccccc1)(c1ccccc1)c1ccccc1 [L2AuCl, (PPh3)2AuCl]",5.99 ± 0.4 µM,0.53 ± 0.03 µM,2.47 µM,2.5 n. d. * kcal/mol,−7.37 n. d. * kcal/mol,−4.87 n. d.* kcal/mol,8.42 n. d. * cal/mol K,3.83 µM,2.22 ± 0.25 µM,–,"Kd (DHFR from E. coli [1]; conditions not stated in the conclusions, read-out: thermodynamic constant for the dissociation of the adduct [DHFR:(PPh3)2AuCl]): ~2 µM"
"c1ccc(P(c2ccccc2)c2ccccc2)cc1 [L, PPh3, reference compound]",–,–,–,–,–,–,–,–,–,6.16 ± 0.77 µM,–
"[Cl][Au].c1ccc(P(c2ccccc2)c2ccccc2)cc1 [LAuCl, PPh3AuCl]",–,–,–,–,–,–,–,–,–,1.21 ± 0.2 µM,–
CN(Cc1cnc2nc(N)nc(N)c2n1)c1ccc(C(=O)N[C@@H](CCC(=O)O)C(=O)O)cc1 [Methotrexate],–,–,–,–,–,–,–,–,–,–,stronger bond to DHFR than DHF (factor) (DHFR): 10^3
"O=C(O)c1ccccc1P(c1ccccc1)c1ccccc1.O=C(O)c1ccccc1P(c1ccccc1)c1ccccc1.[Cl][Au] [^2L2AuCl, (2COOHPh-Ph2P)2AuCl]",10.3 ± 0.65 µM,–,–,–,–,–,–,–,4.73 ± 0.68 µM,2 µM and 2.07 µM,Stability of the solution (UV-visible spectra 200–700 nm) [4]: no overall changes in solution over
"O=C(O)c1ccccc1P(c1ccccc1)c1ccccc1.O=C(O)c1ccccc1P(c1ccccc1)c1ccccc1.O=C(O)c1ccccc1P(c1ccccc1)c1ccccc1.[Cl][Au] [^2L3AuCl, [tris(2-benzoate-diphenylphosphanyl)-gold(I)chloride]]",10.5 ± 1.07 µM,21.3 ± 3.8 µM,7.12 µM,2.86 ± 0.1 kcal/mol,-6.8 ± 0.14 kcal/mol,-3.94 ± 0.1 kcal/mol,9.58 ± 0.08 cal/mol K,5.11 µM,7.32 ± 2.46 µM,–,n = Hill coefficient (DHFR from E. coli [1]; 10 °C): 1.41 ± 0.048; n = Hill coefficient (DHFR from E. coli [1]; [8]): 1.23 ± 0.082
"O=C(O)c1ccccc1P(c1ccccc1)c1ccccc1 [^2L, 2-(diphenylphosphine) benzoic acid, reference compound]",–,–,–,–,–,–,–,–,–,–,Ki (DHFR from E. coli [3]): No inhibition *
"O=C(O)c1ccccc1P(c1ccccc1)c1ccccc1.[Cl][Au] [^2LAuCl, (2COOHPh-Ph2P)AuCl]",–,–,–,–,–,–,–,–,–,1.1 ± 0.3 µM,–
"O=C(O)c1ccc(P(c2ccccc2)c2ccccc2)cc1.O=C(O)c1ccc(P(c2ccccc2)c2ccccc2)cc1.[Cl][Au] [^4L2AuCl, (4COOHPh-Ph2P)2AuCl]",4.42 ± 0.56 µM,–,3.52 µM,5.29 ± 0.2 kcal/mol,-7.31 ± 0.28 kcal/mol,-2.02 ± 0.2 kcal/mol,17.76 ± 0.1 cal/mol K,3.06 µM,2.35 ± 0.61 µM,27 µM and 27.8 µM,Stability of the solution (UV-visible spectra 200–700 nm) [4]: no overall changes in solution over
"O=C(O)c1ccc(P(c2ccccc2)c2ccccc2)cc1.O=C(O)c1ccc(P(c2ccccc2)c2ccccc2)cc1.O=C(O)c1ccc(P(c2ccccc2)c2ccccc2)cc1.[Cl][Au] [^4L3AuCl, [tris(4-benzoate-diphenylphosphanyl)-gold(I)chloride]]",3.84 ± 0.29 µM,4.6 ± 0.5 µM,3.32 µM,2.19 ± 0.1 kcal/mol,-7.23 ± 0.12 kcal/mol,-5.04 ± 0.08 kcal/mol,7.34 ± 0.005 cal/mol K,2 µM,5.05 ± 2.7 µM,–,n = Hill coefficient (DHFR from E. coli [1]; [8]): 1.73; Stability of the solution (UV-visible spectra 200–700 nm) [4]: no overall changes in solution over
"O=C(O)c1ccc(P(c2ccccc2)c2ccccc2)cc1.O=C(O)c1ccc(P(c2ccccc2)c2ccccc2)cc1.O=C(O)c1ccc(P(c2ccccc2)c2ccccc2)cc1.O=S(=O)([O][Au])C(F)(F)F [^4L3AuTfl, [tris(4-benzoate-diphenylphosphanyl)-gold(I)triflate]]",21.4 ± 3.85 µM,6.33 ± 0.7 µM,–,1.17 ± 0.9 kcal/mol,–,-5.32 ± 3.2 kcal/mol,3.92 ± 8.8 cal/mol K,8.08 µM,–,–,–
"O=C(O)c1ccc(P(c2ccccc2)c2ccccc2)cc1 [^4L, 4-(diphenylphosphino)benzoic acid, reference compound]",59.6 ± 5.7 µM,–,–,–,–,–,–,–,–,–,Ki (DHFR from E. coli [3]): No inhibition *
"O=C(O)c1ccc(P(c2ccccc2)c2ccccc2)cc1.[Cl][Au] [^4LAuCl, (4COOHPh-Ph2P)AuCl]",–,–,–,–,–,–,–,–,–,2.25 ± 0.62 µM,–
COC(=O)c1ccc(P(c2ccccc2)c2ccccc2)cc1.COC(=O)c1ccc(P(c2ccccc2)c2ccccc2)cc1.COC(=O)c1ccc(P(c2ccccc2)c2ccccc2)cc1.[Cl][Au] [^4MeL3AuCl],13.4 ± 2.24 µM,12.7 ± 2.1 µM,7.63 µM,2.29 n. d. * kcal/mol,−6.64 n. d. * kcal/mol,−4.35 n. d. * kcal/mol,7.69 n. d. * cal/mol K,21.2 µM,4.55 ± 1.04 µM,–,–

# From publication PMC6479694, “Studies on the Interaction between Poly-Phosphane Gold(I) Complexes and Dihydrofolate Reductase: An Interplay with Nicotinamide Adenine Dinucleotide Cofactor” (International Journal of Molecular Sciences, 2019)
